# Experimental data reported in BindingDB's records for doi:10.1021/jm00049a020 (Pharmacia-Farmitalia Carlo Erba, 1994).
# Target: T1, Neutrophil elastase (Homo sapiens, UniProt P08246)
# T1 sequence (P08246 whole entry): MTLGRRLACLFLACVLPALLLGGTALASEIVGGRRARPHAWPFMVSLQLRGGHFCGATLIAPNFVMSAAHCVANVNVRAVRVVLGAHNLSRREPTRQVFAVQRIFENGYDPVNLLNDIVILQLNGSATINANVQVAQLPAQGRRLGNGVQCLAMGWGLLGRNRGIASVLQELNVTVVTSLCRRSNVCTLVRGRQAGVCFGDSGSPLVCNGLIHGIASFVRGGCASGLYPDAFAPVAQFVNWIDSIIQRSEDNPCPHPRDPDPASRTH
# Assay: Tested for the rate constant against Human Leukocyte Elastase (HLE) inactivation
# Details: read-out: kon (M-1-s-1)
smiles,measurement,value
"CO[C@H]1C(=O)N2C(C(=O)N3CCCC3C(=O)O)=C(COC(C)=O)CS(=O)(=O)[C@H]12 (stereo partly drawn) [1-(3-Acetoxymethyl-7-methoxy-5,5,8-trioxo-5lambda*6*-thia-1-aza-bicyclo[4.2.0]oct-2-ene-2-carbonyl)-pyrrolidine-2-carboxylic acid(L-658,758)]",kon,1800 M⁻¹ s⁻¹
